Reference: the supplement of paper PMC6045584
± gives the standard deviation of the averaged measurements.

Key:
[1] = compound: CCn1c(C(=O)N(C2CC2)C2CC2)cc2c3c(ncn3C)c(Nc3cc(C)n(C)n3)nc21; experiment: surviving fraction relative to DMSO-only wells; higher = less growth inhibition; settings: exposure time: 5 days
Outline: (§1)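 Continuous five-day exposure to inhibitors at 0.5, 1, 5, 10, 50, 100, 500 and 1000 nM started 24 hours after log-phase tumour cell lines were seeded at 250–500 cells per well in 384-well plates. Luminescence was read after 10 minutes at room temperature. Viability is given as surviving fraction, meaning CellTiter-Glo luminescence normalised to the median of DMSO-only wells.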

[2] = compound: C[C@]12CC[C@H](O)CC1=CC[C@@H]1[C@@H]2CC[C@]2(C)C(c3cccnc3)=CC[C@@H]12 [ABIRATERONE]; experiment: as above; settings: exposure time: 5 days
Outline: as §1

G292 BONE gave a surviving fraction ([1]; 0.5 nM) of 0.983 ± 0.044, a surviving fraction ([1]; 1 nM) of 0.978 ± 0.019 and a surviving fraction ([1]; 5 nM) of 1.01 ± 0.056. The surviving fraction ([1]; 10 nM) was 1.01 ± 0.038, the surviving fraction ([1]; 50 nM) was 1.03 ± 0.04 and the surviving fraction ([1]; 100 nM) was 1.028 ± 0.0063. The surviving fraction ([1]; 500 nM) was 0.952 ± 0.021, the surviving fraction ([1]; 1000 nM) was 0.97 ± 0.036 and the surviving fraction ([2]; 0.5 nM) was 1.02 ± 0.028. It also gave a surviving fraction ([2]; 1 nM) of 0.994 ± 0.03, a surviving fraction ([2]; 5 nM) of 1.06 ± 0.037 and a surviving fraction ([2]; 10 nM) of 1.04 ± 0.026. The surviving fraction ([2]; 50 nM) was 1.05 ± 0.038, the surviving fraction ([2]; 100 nM) was 1.05 ± 0.018 and the surviving fraction ([2]; 500 nM) was 1.03 ± 0.034. The surviving fraction ([2]; 1000 nM) was 1.01 ± 0.029.
Test System HCC38 BREAST has a surviving fraction ([1]; 0.5 nM) of 1.26 ± 0.17, a surviving fraction ([1]; 1 nM) of 1.2 ± 0.084 and a surviving fraction ([1]; 5 nM) of 1.28 ± 0.02. The surviving fraction ([1]; 10 nM) was 1.14 ± 0.063, the surviving fraction ([1]; 50 nM) was 1.19 ± 0.11 and the surviving fraction ([1]; 100 nM) was 1.23 ± 0.099. It also gave a surviving fraction ([1]; 500 nM) of 1.22 ± 0.18, a surviving fraction ([1]; 1000 nM) of 1.24 ± 0.17 and a surviving fraction ([2]; 0.5 nM) of 1.21 ± 0.22. It also gave a surviving fraction ([2]; 1 nM) of 1.24 ± 0.14, a surviving fraction ([2]; 5 nM) of 1.22 ± 0.31 and a surviving fraction ([2]; 10 nM) of 1.29 ± 0.38. The surviving fraction ([2]; 50 nM) was 1.18 ± 0.41, the surviving fraction ([2]; 100 nM) was 1.32 ± 0.18 and the surviving fraction ([2]; 500 nM) was 1.16 ± 0.12. For the same test system, the surviving fraction ([2]; 1000 nM) was 1 ± 0.14.
Work on HCC70 BREAST yielded a surviving fraction ([1]; 0.5 nM) of 0.976 ± 0.033, a surviving fraction ([1]; 1 nM) of 0.984 ± 0.15 and a surviving fraction ([1]; 5 nM) of 1.03 ± 0.093. It also gave a surviving fraction ([1]; 10 nM) of 0.97 ± 0.041, a surviving fraction ([1]; 50 nM) of 1.055 ± 0.0098 and a surviving fraction ([1]; 100 nM) of 1.06 ± 0.055. The surviving fraction ([1]; 500 nM) was 0.939 ± 0.026, the surviving fraction ([1]; 1000 nM) was 0.946 ± 0.068 and the surviving fraction ([2]; 0.5 nM) was 1.1 ± 0.069. For the same test system, the surviving fraction ([2]; 1 nM) was 1.02 ± 0.088, the surviving fraction ([2]; 5 nM) was 1.09 ± 0.026 and the surviving fraction ([2]; 10 nM) was 1.11 ± 0.055. It also gave a surviving fraction ([2]; 50 nM) of 1.15 ± 0.13, a surviving fraction ([2]; 100 nM) of 1.14 ± 0.017 and a surviving fraction ([2]; 500 nM) of 1.03 ± 0.076. The surviving fraction ([2]; 1000 nM) was 0.949 ± 0.098.
For HMLE3 BREAST, the surviving fraction ([1]; 0.5 nM) was 0.951 ± 0.038, the surviving fraction ([1]; 1 nM) was 0.942 ± 0.037 and the surviving fraction ([1]; 5 nM) was 0.977 ± 0.09. The surviving fraction ([1]; 10 nM) was 0.949 ± 0.072, the surviving fraction ([1]; 50 nM) was 0.953 ± 0.088 and the surviving fraction ([1]; 100 nM) was 0.956 ± 0.061. For the same test system, the surviving fraction ([1]; 500 nM) was 0.914 ± 0.036, the surviving fraction ([1]; 1000 nM) was 0.906 ± 0.056 and the surviving fraction ([2]; 0.5 nM) was 0.965 ± 0.017. The surviving fraction ([2]; 1 nM) was 1.01 ± 0.04, the surviving fraction ([2]; 5 nM) was 1.04 ± 0.063 and the surviving fraction ([2]; 10 nM) was 1.04 ± 0.051. The surviving fraction ([2]; 50 nM) was 1.12 ± 0.079, the surviving fraction ([2]; 100 nM) was 1.02 ± 0.084 and the surviving fraction ([2]; 500 nM) was 1.02 ± 0.063. It also gave a surviving fraction ([2]; 1000 nM) of 1.04 ± 0.04.
For HMT3552 BREAST, the surviving fraction ([1]; 0.5 nM) was 0.943, the surviving fraction ([1]; 1 nM) was 0.942 and the surviving fraction ([1]; 5 nM) was 1.08. It also gave a surviving fraction ([1]; 10 nM) of 1.03, a surviving fraction ([1]; 50 nM) of 1.23 and a surviving fraction ([1]; 100 nM) of 1.18. It also gave a surviving fraction ([1]; 500 nM) of 1.18, a surviving fraction ([1]; 1000 nM) of 1.27 and a surviving fraction ([2]; 0.5 nM) of 1.05. For the same test system, the surviving fraction ([2]; 1 nM) was 1.02, the surviving fraction ([2]; 5 nM) was 1.01 and the surviving fraction ([2]; 10 nM) was 1.09. It also gave a surviving fraction ([2]; 50 nM) of 1.08, a surviving fraction ([2]; 100 nM) of 1.07 and a surviving fraction ([2]; 500 nM) of 1.32. The surviving fraction ([2]; 1000 nM) was 1.24.
HS578T BREAST showed a surviving fraction ([1]; 0.5 nM) of 1.13 ± 0.053, a surviving fraction ([1]; 1 nM) of 0.828 ± 0.05 and a surviving fraction ([1]; 5 nM) of 1 ± 0.12. The surviving fraction ([1]; 10 nM) was 1.01 ± 0.15, the surviving fraction ([1]; 50 nM) was 0.821 ± 0.06 and the surviving fraction ([1]; 100 nM) was 1.09 ± 0.15. For the same test system, the surviving fraction ([1]; 500 nM) was 0.999 ± 0.049, the surviving fraction ([1]; 1000 nM) was 0.989 ± 0.073 and the surviving fraction ([2]; 0.5 nM) was 1.06 ± 0.16. For the same test system, the surviving fraction ([2]; 1 nM) was 0.858 ± 0.12, the surviving fraction ([2]; 5 nM) was 0.945 ± 0.12 and the surviving fraction ([2]; 10 nM) was 0.924 ± 0.2. The surviving fraction ([2]; 50 nM) was 1.04 ± 0.091, the surviving fraction ([2]; 100 nM) was 0.996 ± 0.051 and the surviving fraction ([2]; 500 nM) was 0.985 ± 0.065. For the same test system, the surviving fraction ([2]; 1000 nM) was 0.94 ± 0.037.
